Laboratory results as given in patent US20210300943A1, “OGA INHIBITOR COMPOUNDS” (Janssen Pharmaceutica NV, priority 2018, published 2021).

Legend:
OGA = target: T1, OGA (Homo sapiens, UniProt O60502); experiment: OGA cellular assay (ICC detection of O-GlcNAcylated proteins in HEK293 cells inducible for P301L mutant human Tau); type: cell-based; settings: for EC50 / Cellular Emax (%): HEK293 cells inducible for P301L mutant human Tau; for EC50: 6 hours incubation, read-out: Cellular hOGA, pEC50 (converted); for Cellular Emax (%) / Emax: maximal effect, Thiamet G 200 uM as maximum; for Emax: HEK293, HEK293 cells inducible for P301L mutant human Tau
T1 construct: endogenous in cells; host or cells: HEK293 cells inducible for P301L mutant human Tau (2N4R)
T1 sequence (O60502 1-916): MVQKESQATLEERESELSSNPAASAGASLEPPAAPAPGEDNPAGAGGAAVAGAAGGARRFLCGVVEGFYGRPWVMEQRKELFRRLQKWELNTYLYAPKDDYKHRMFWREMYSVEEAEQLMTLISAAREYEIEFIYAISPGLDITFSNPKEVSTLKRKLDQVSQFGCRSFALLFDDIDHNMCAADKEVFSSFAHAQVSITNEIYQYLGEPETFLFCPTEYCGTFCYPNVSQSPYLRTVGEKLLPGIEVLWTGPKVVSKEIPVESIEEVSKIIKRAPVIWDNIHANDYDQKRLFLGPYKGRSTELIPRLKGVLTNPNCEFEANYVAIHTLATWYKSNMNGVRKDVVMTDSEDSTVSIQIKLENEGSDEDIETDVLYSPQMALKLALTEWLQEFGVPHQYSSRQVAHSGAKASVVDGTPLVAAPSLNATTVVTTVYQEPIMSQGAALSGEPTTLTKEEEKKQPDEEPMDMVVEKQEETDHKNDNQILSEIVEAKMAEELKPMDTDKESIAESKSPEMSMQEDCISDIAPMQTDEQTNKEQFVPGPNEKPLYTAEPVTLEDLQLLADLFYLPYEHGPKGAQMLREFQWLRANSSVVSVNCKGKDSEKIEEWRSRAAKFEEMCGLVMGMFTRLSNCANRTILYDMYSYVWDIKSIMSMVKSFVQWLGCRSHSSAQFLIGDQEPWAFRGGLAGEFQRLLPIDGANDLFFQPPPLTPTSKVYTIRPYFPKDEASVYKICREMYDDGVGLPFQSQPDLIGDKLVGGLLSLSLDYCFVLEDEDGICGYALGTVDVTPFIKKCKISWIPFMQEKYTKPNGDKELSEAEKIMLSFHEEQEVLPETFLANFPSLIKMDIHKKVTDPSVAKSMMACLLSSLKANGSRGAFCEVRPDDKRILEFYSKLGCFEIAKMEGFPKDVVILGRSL
Experimental: HEK293 cells inducible for P301L mutant human Tau (isoform 2N4R) were established at Janssen. Thiamet-G was used for both plate validation (high control) and as reference compound (reference EC50 assay validation). OGA inhibition is evaluated through the immunocytochemical (ICC) detection of O-GlcNAcylated proteins by the use of a monoclonal antibody (CTD110.6; Cell Signaling, #9875) detecting 0-GlcNAcylated residues as previously described (Dorfmueller et al. 2010 Chemistry & biology, 17:1250). Inhibition of OGA will result in an increase of O-GlcNAcylated protein levels resulting in an increased signal in the experiment. Cell nuclei are stained with Hoechst to give a cell culture quality control and a rough estimate of immediate compounds toxicity, if any. ICC pictures are imaged with a Perkin Elmer Opera Phenix plate microscope and quantified with the provided software Perkin Elmer Harmony 4.1.
Cells were propagated in DMEM high Glucose (Sigma, #D5796) following standard procedures. 2 days before the cell assay cells are split, counted and seeded in Poly-D-Lysine (PDL) coated 96-wells (Greiner, #655946) plate at a cell density of 12,000 cells per cm^2 (4,000 cells per well) in 100 μl of Assay Medium (Low Glucose medium is used to reduce basal levels of GlcNAcylation) (Park et al. 2014 The Journal of biological chemistry 289:13519). At the day of compound test medium from assay plates was removed and replenished with 90 μl of fresh Assay Medium. 10 μl of compounds at a 10 fold final concentration were added to the wells. Plates were centrifuged shortly before incubation in the cell incubator for 6 hours. DMSO concentration was set to 0.2%. Medium is discarded by applying vacuum. For staining of cells medium was removed and cells washed once with 100 μl D-PBS (Sigma, #D8537). From next step onwards unless other stated assay volume was always 50 μl and incubation was performed without agitation and at room temperature. Cells were fixed in 50 μl of a 4% paraformaldehyde (PFA, Alpha aesar, #043368) PBS solution for 15 minutes at room temperature. […] Before analysis samples were washed 2 times manually for 5 minutes in ICC base buffer.
Imaging is performed using Perkin Elmer Phenix Opera using a water 20× objective and recording 9 fields per well. Intensity readout at 488 nm is used as a measure of O-GlcNAcylation level of total proteins in wells. To assess potential toxicity of compounds nuclei were counted using the Hoechst staining. IC50-values are calculated using parametric non-linear regression model fitting. As a maximum inhibition Thiamet G at a 200 uM concentration is present on each plate. In addition, a concentration response of Thiamet G is calculated on each plate.

[1] = target: T2, recombinant human Meningioma Expressed Antigen 5 (MGEA5), also referred to as O-GlcNAcase (OGA) (Homo sapiens, UniProt O60502); experiment: OGA biochemical assay (inhibition of FM-GlcNAc hydrolysis, fluorescence); settings: for Emax / Enzymatic Emax (%): maximal effect; for Emax: read-out: Enzymatic Emax (%); for IC50: read-out: Enzymatic hOGA, pIC50 (converted)
T2 construct: Full length OGA enzyme was purchased at OnGene (cat #TP322411); purchased OnGene (so in the source)
T2 sequence (O60502 1-916): T1 sequence (O60502 1-916)
Summary of the method: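 Full-length recombinant OGA (2 nM) pre-incubated with compound 60 min at room temperature, then FM-GlcNAc (100 µM final) added in citrate/phosphate buffer pH 7.2 with 0.005% Tween-20. After 6 h at room temperature, stopped with carbonate pH 11.0; fluorescein read at 485/538 nm; IC50 and Hill coefficient from curve fit.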

EC50 (OGA) [nM]	Cellular Emax (%) (OGA)	Emax [1] [%]	IC50 [1] [nM]	Enzymatic Emax (%) [1] [%]	Emax (OGA) [%]	SMILES
> 1000	3	93	794			Cc1cc(OC[C@H]2CCCN(C(C)c3ccc4c(n3)OCCO4)C2)nc(C)n1 (single isomer, unassigned) [Product 162]
45.7	82		7.94	100		Cc1cc(OC[C@H]2CCCN(C(C)c3ccc4c(n3)OCCO4)C2)nc(C)n1 (single isomer, unassigned) [Product 163]
6.31		100	3.16		86	Cc1cc([C@H]2CCCN(C(C)c3nc4c(cc3F)OCCO4)C2)cc(C)n1 (single isomer, unassigned) [Product 164]
100		100	63.1		80	Cc1cc([C@@H]2CCCN(C(C)c3nc4c(cc3F)OCCO4)C2)cc(C)n1 (single isomer, unassigned) [Product 165]
100	67	98	10			Cc1cc(CO[C@H]2CCCN(C(C)c3ccc4c(n3)OCCO4)C2)cc(C)n1 (single isomer, unassigned) [Product 166]
> 1000	26		158	97		Cc1cc(CO[C@H]2CCCN(C(C)c3ccc4c(n3)OCCO4)C2)cc(C)n1 (single isomer, unassigned) [Product 167]
> 1000	−5	85	2000			Cc1cc(CO[C@H]2CCCN(C(C)c3nc4c(cc3F)OCCO4)C2)cc(C)n1 (single isomer, unassigned) [Product 169]
12.6	79		3.16	98		Cc1cc(CO[C@H]2CCCN(C(C)c3nc4c(cc3F)OCCO4)C2)cc(C)n1 (single isomer, unassigned) [Product 170]
2.51		100	2.51		78	Cc1cc([C@H]2CCCN(C(C)c3nc4c(cc3F)CCO4)C2)cc(C)n1 (single isomer, unassigned) [Product 171]
63.1		99	6.31		75	Cc1cc(CC2(F)CCCN([C@H](C)c3nc4c(cc3F)OCCO4)C2)cc(C)n1 (single isomer, unassigned) [Product 174]
> 1000		92	1000		1	Cc1cc(CC2(F)CCCN([C@@H](C)c3nc4c(cc3F)OCCO4)C2)cc(C)n1 (single isomer, unassigned) [Product 175]
126		99	15.8		69	Cc1cc(CC2(F)CCCN([C@H](C)c3ccc4c(n3)OCCO4)C2)cc(C)n1 (single isomer, unassigned) [Product 176]
> 1000		81	2510		-8	Cc1cc(CC2(F)CCCN([C@@H](C)c3ccc4c(n3)OCCO4)C2)cc(C)n1 (single isomer, unassigned) [Product 177]
251		100	200		72	Cc1cc(OC[C@H]2CCCN(C(C)c3nc4c(cc3F)CCO4)C2)cc(C)n1 (single isomer, unassigned) [Product 179]
1	79		1.58	99		Cc1cc(OC[C@H]2CCCN(C(C)c3nc4c(cc3F)CCO4)C2)cc(C)n1 (single isomer, unassigned) [Product 180]
50.1		99	7.94		65	COc1cc(OC[C@H]2CCCN([C@H](C)c3ccc4c(n3)OCCO4)C2)cc(C)n1 (single isomer, unassigned) [Product 183]
> 1000		87	2000		-17	COc1cc(OC[C@H]2CCCN(C(C)c3ccc4c(n3)OCCO4)C2)cc(C)n1 (single isomer, unassigned) [Product 184]
> 1000		83	2000		-6	Cc1cc([C@H]2CCCN([C@H](C)c3ccc4c(n3)OCCO4)C2)c(F)c(C)n1 (single isomer, unassigned) [Product 186]
100		102	20		77	Cc1cc(C2CCCN(C(C)c3ccc4c(n3)OCCO4)C2)cc(C)n1 (stereo not shown) [Product 1]
100		103	12.6		77	COc1cc(C2CCCN(C(C)c3ccc4c(n3)OCCO4)C2)cc(C)n1 (stereo not shown) [Product 7]
200		100	15.8		86	Cc1cc(C2CCCN(C(C)c3ccc4c(n3)OCCO4)C2)cc(C(F)(F)F)n1 (stereo not shown) [Product 8]
50.1		102	10		92	Cc1cc(C2CCCN(C(C)c3cc4c(cc3F)OCCO4)C2)cc(C(F)(F)F)n1 (stereo not shown) [Product 9]
977		100	25.1		52	COc1cc(C2CCCN(C(C)c3ccc4c(n3)OCCO4)C2)cc(C(F)(F)F)n1 (stereo not shown) [Product 10]
316		103	20		70	COc1cc(C2CCCN(C(C)c3cc4c(cc3F)OCCO4)C2)cc(C(F)(F)F)n1 (stereo not shown) [Product 11]
631		101	5.01		60	Cc1cc(OC2CCCN(C(C)c3cnc4c(c3)OCCN4)C2)cc(C)n1 (stereo not shown) [Product 14]
> 1000		103	20		16	Cc1cc(OC2CCCN(C(C)c3cc4c(cc3F)OCCO4)C2)cc(C(F)(F)F)n1 (stereo not shown) [Product 15]
794		100	50.1		57	COc1cc(OC2CCCN(C(C)c3ccc4c(n3)OCCO4)C2)cc(C)n1 (stereo not shown) [Product 18]
15.8		103	5.01		88	Cc1cc(NCC2CCCN(C(C)c3ccc4c(n3)OCCO4)C2)cc(C)n1 (stereo not shown) [Product 21]
